Among the data in article PMC5216903 (Febs Letters, 2016) are Km values, retold here.

What all share (assay): two-electrode voltage clamp of Xenopus oocytes, steady-state current
Common to all, as to conditions: ND96 buffer pH 7.6, -60 mV; Fe(III) complex of DMA

For one assay, the system named is Hv-Zm-Hv. In kind it is cell-based, Hordeum vulgare; Zea mays.
The target in another assay is HvYS1 (Hordeum vulgare, UniProt Q2PGC4). In kind it is cell-based.
The subject of a further assay is Zm-Hv-Zm. In kind it is cell-based, Zea mays; Hordeum vulgare.
The target in a further assay is T1, ZmYS1 (Zea mays, UniProt Q9AY27).
T1 sequence (Q9AY27 1-682): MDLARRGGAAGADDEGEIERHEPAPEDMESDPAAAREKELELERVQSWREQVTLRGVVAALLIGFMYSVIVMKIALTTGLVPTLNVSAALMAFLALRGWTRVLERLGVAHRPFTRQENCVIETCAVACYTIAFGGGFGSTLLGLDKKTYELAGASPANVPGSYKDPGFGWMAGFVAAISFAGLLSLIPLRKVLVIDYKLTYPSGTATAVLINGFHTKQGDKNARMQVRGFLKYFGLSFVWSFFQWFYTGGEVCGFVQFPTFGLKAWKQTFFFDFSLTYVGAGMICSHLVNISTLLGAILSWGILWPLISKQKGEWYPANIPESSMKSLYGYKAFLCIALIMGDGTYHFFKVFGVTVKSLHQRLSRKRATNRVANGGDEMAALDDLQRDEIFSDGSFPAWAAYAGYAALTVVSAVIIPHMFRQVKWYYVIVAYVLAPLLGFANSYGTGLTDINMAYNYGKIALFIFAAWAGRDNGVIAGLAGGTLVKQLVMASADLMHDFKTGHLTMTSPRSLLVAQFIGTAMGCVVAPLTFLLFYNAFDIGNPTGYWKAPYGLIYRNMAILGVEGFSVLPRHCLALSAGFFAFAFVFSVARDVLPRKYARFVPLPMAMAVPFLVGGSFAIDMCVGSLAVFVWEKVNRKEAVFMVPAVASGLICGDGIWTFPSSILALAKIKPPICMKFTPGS
In kind it is cell-based.

Sequence of HvYS1 (Q2PGC4 1-678): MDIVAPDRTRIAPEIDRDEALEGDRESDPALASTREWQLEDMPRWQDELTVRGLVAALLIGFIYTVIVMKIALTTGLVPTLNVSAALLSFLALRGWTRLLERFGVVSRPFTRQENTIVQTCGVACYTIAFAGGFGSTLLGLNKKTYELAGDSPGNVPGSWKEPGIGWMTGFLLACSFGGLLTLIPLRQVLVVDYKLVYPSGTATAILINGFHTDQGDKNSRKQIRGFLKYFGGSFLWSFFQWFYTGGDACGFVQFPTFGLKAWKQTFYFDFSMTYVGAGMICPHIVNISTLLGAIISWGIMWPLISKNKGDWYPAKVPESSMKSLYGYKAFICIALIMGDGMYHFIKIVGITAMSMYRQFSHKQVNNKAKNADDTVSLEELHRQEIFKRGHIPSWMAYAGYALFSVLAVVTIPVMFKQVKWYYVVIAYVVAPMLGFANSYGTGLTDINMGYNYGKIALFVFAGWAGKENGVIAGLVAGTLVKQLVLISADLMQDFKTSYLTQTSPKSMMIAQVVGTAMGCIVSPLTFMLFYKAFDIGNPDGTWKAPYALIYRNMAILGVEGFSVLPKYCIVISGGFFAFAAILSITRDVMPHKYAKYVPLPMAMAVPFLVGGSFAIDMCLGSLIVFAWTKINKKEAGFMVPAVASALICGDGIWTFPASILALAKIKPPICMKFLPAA

Consider `O=C([O-])[C@H](CCN1CC[C@H]1C(=O)[O-])NCC[C@H](O)C(=O)[O-].[Fe+3]` [Fe(III)-DMA], for which the Km with Hv-Zm-Hv amounted to 60.8 µM; at HvYS1, 71.8 µM; with Zm-Hv-Zm, 44.2 µM; at ZmYS1, 65.3 µM.

As usually defined, the Km is the substrate concentration at which the rate is half of its maximum.
